Data reported in US20240383905A1, “FGFR INHIBITORS AND METHODS OF USE THEREOF” (3H PHARMACEUTICALS CO., LTD., priority 2021, published 2024).

How the values were obtained:
[1] = target: T1, FGFR1 (Homo sapiens, UniProt P11362); experiment: FGFR1 Biochemical Caliper Assay (KinEASE-TK kit); settings: ratio FGFR1/FGFR2 of the biochemical assay
T1 construct: purchased Carna 08-133
Procedure: (§1) Compounds of the present invention were tested in a FGFR1, FGFR2, and FGFR3 Biochemical Caliper Assay. Enzyme activity was monitored using KinEASE-TK kit (CisBio, Cat.No. 62TK0PEC) according to manufacturer's instructions. […] Final enzyme concentration was 0.2 nM for FGFR1 and FGFR3, 0.07 nM for FGFR2. Compounds were prepared in 10 mM DMSO and serially diluted into 10 concentrations by 3-fold dilution. Prior to the initiation of the reaction by adding TK-substrate/ATP mixture, the compounds were incubated with protein for 10 min at RT. […] Plates were quenched by adding TK-antibody-Cryptate and Sa-XL665 mixture. After 60 min in the stop solution, read the signal on microplate reader (Molecular Devices, i3x), excitation of 320 nm and emission of 615 nm and 665 nm with a […]. IC50 values were calculated using Prism 7 (GraphPad).

[2] = target: T2, FGFR3 (Homo sapiens, UniProt P22607); experiment: FGFR3 Biochemical Caliper Assay (KinEASE-TK kit); settings: ratio FGFR3/FGFR2 of the biochemical assay
T2 construct: purchased Carna 08-135
Procedure: as §1

[3] = test system: SNU16 cells; experiment: SNU16 Cancer Cell Line Proliferation Assay (CellTiter-Glo); assay type: cell-based; settings: Homo sapiens, SNU-16, 72 h
Procedure: Compounds of the present invention were also tested in a SNU16 Cancer Cell Line Proliferation Assay.
SNU16 cells were plated in 96-well clear bottom/white plate(Costar, Cat.No. 3610) at 5000 cells/well in 100 μl medium. Test compounds were prepared in a 10 mM DMSO stock solution and serially diluted into 9 concentrations by 3-fold dilution. 0.5 μl of each concentration of compound was added into the cell culture plates and DMSO as a control. The plates were incubated for 72 h at 37° C. and 5% CO2 incubator. 50 μl CellTiter-Glo reagent (Promega, G7572) was added into each well and then the plates were shaken gently for 10 min at room temperature. Luminescence was read on microplate reader (Molecular Devices, i3x), IC50 values were calculated using Prism 7 (GraphPad).

[4] = target: T3, FGFR2 (Homo sapiens, UniProt P21802); experiment: FGFR2 Biochemical Caliper Assay (KinEASE-TK kit); settings: 0.07 nM FGFR2; compound incubated with protein 10 min, reaction 45 min at RT; read-out: FGFR2 Cliper IC50
T3 construct: purchased Carna 08-134
Procedure: Compounds of the present invention were tested in a FGFR1, FGFR2, and FGFR3 Biochemical Caliper Assay.
as §1, with “Enzyme” for “Compounds of the present invention were tested in a FGFR1, FGFR2, and FGFR3 Biochemical Caliper Assay. Enzyme”

T1 sequence (P11362 22-822): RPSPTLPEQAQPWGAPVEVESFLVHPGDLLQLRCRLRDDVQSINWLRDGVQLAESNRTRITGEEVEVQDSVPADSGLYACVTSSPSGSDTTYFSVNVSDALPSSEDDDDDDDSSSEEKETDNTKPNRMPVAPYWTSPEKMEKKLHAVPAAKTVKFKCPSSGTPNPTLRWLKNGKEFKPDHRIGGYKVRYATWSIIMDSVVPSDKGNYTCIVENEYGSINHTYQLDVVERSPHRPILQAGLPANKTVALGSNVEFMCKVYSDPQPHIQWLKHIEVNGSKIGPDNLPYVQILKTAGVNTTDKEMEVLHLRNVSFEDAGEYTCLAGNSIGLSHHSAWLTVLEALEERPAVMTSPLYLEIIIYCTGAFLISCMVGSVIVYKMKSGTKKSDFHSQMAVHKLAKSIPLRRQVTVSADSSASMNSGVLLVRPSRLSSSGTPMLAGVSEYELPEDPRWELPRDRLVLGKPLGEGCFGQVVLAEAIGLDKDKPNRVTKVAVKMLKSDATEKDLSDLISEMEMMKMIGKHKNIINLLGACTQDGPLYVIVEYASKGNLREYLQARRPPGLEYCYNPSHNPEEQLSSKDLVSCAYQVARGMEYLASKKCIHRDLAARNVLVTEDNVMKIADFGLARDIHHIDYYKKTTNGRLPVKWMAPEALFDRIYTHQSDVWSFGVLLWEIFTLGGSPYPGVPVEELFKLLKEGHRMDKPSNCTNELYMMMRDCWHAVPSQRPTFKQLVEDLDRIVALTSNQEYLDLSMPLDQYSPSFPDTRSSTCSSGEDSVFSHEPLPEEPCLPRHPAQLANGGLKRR
T2 sequence (P22607 23-806): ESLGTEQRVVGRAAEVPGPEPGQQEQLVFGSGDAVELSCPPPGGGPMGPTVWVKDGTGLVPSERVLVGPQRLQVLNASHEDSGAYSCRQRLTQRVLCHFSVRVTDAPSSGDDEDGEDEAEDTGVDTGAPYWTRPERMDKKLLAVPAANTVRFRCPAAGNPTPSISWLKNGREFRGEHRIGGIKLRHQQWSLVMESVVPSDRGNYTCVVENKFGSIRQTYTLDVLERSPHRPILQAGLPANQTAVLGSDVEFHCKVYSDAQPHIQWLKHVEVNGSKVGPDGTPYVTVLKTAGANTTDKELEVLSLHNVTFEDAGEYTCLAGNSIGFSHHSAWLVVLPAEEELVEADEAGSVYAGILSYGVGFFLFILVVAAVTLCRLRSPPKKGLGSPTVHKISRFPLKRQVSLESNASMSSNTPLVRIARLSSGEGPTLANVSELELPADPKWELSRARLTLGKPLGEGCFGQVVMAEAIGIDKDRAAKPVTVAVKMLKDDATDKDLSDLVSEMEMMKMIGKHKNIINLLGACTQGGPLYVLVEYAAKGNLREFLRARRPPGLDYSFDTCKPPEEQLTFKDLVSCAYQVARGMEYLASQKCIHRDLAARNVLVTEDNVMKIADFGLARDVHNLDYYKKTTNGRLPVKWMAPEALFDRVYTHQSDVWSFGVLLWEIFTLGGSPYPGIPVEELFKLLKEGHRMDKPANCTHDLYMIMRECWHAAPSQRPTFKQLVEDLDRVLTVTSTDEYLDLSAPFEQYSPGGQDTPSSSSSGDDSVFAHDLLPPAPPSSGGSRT
T3 sequence (P21802 22-821): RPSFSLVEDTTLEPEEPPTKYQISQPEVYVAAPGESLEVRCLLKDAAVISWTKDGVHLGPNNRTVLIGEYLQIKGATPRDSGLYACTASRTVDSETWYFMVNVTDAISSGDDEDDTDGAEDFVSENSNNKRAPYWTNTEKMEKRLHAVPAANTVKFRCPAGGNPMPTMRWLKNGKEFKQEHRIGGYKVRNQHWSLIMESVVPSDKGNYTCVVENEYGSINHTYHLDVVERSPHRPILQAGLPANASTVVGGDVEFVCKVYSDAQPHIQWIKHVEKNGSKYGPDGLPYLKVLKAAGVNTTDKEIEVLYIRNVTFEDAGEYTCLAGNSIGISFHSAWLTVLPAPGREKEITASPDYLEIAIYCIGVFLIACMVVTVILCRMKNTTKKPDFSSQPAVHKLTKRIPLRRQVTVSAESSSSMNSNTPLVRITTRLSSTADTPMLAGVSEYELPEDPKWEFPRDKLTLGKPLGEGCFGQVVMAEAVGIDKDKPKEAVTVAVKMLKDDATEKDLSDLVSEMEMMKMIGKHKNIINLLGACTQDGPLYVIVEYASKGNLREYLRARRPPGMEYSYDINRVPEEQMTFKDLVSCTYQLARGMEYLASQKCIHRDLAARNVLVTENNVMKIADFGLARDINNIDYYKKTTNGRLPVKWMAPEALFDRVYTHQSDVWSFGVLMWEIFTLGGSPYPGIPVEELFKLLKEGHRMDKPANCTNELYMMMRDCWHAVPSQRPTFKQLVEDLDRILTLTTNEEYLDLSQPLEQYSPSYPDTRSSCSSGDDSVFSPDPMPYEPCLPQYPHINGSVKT

Row | Compound | IC50 [3] | IC50 [4] | Selectivity FGFR1/FGFR2 [1] | Selectivity FGFR3/FGFR2 [2]
1 | C=CC(=O)Nc1ccc(-c2[nH]c3c(C#N)cnc(N)c3c2-c2ccc(Oc3nccc(C)n3)c(OC)c2)cc1 [Compound 22, N-(4-(4-amino-7-cyano-3-(3-methoxy-4-((4-methylpyrimidin-2-yl)oxy)phenyl)-1H-pyrrolo[3,2-c]pyridin-2-yl)phenyl)acrylamide] | ≤ 10 nM | < 5 nM | A (Selectivity of FGFR1/FGFR2 less than 500 but greater than or equal to 300) | B (Selectivity of FGFR3/FGFR2 less than 100 but greater than or equal to 25)
2 | C=CC(=O)Nc1ccc(-c2nn3ncnc(N)c3c2-c2ccc(C(=O)NCC(F)(F)F)c(OC)c2)c(F)c1 [Compound 86, 4-(6-(4-acrylamido-2-fluorophenyl)-4-aminopyrazolo[5,1-f] [1,2,4]triazin-5-yl)-2-methoxy-N-(2,2,2-trifluoroethyl)benzamide] | ≤ 10 nM | < 5 nM | A+ (Selectivity of FGFR1/FGFR2 greater or equal to 500) | B (Selectivity of FGFR3/FGFR2 less than 100 but greater than or equal to 25)
3 | C=CC(=O)Nc1ccc(-c2c(-c3ccc(C(=O)NCC(F)(F)F)c(OC)c3)c3c(N)ncc(C#N)c3n2C)c(F)c1 [Compound 150, 4-(2-(4-acrylamido-2-fluorophenyl)-4-amino-7-cyano-1-methyl-1H-pyrrolo[3,2-c]pyridin-3-yl)-2-methoxy-N-(2,2,2-trifluoroethyl)benzamide] | ≤ 10 nM | < 5 nM | A+ (Selectivity of FGFR1/FGFR2 greater or equal to 500) | B (Selectivity of FGFR3/FGFR2 less than 100 but greater than or equal to 25)
4 | C=CC(=O)Nc1ccc(-c2[nH]c3c(C#N)cnc(N)c3c2-c2ccc(C(=O)NC3CC3)c(OC)c2)cc1 [Compound 23, 4-(2-(4-acrylamidophenyl)-4-amino-7-cyano-1H-pyrrolo[3,2-c]pyridin-3-yl)-N-cyclopropyl-2-methoxybenzamide] | ≤ 10 nM | < 5 nM | A+ (Selectivity of FGFR1/FGFR2 greater or equal to 500) | A (Selectivity of FGFR3/FGFR2 less than 150 but greater than or equal to 100)
5 | C=CC(=O)Nc1ccc(-c2nn3ncnc(N)c3c2-c2ccc(C(=O)NCC)c(OC)c2)cc1 [Compound 60, 4-(6-(4-acrylamidophenyl)-4-aminopyrazolo[5,1-f] [1,2,4]triazin-5-yl)-N-ethyl-2-methoxybenzamide] | ≤ 10 nM | 5 to 10 nM | A+ (Selectivity of FGFR1/FGFR2 greater or equal to 500) | A (Selectivity of FGFR3/FGFR2 less than 150 but greater than or equal to 100)
6 | C=CC(=O)Nc1ccc(-c2c(-c3ccc(C(=O)NC4CC4)c(OC)c3)c3c(N)ncc(C#N)c3n2C)cc1 [Compound 105] | ≤ 10 nM | < 5 nM | A+ (Selectivity of FGFR1/FGFR2 greater or equal to 500) | A (Selectivity of FGFR3/FGFR2 less than 150 but greater than or equal to 100)
7 | C=CC(=O)Nc1ccc(-c2nn3ncnc(N)c3c2-c2ccc(C(=O)NC3CC3)c(OC)c2)c(OC)c1 [Compound 154, 4-(6-(4-acrylamido-2-methoxyphenyl)-4-aminopyrazolo[5,1-f][1,2,4]triazin-5-yl)-N-cyclopropyl-2-methoxybenzamide] | ≤ 10 nM | < 5 nM | A+ (Selectivity of FGFR1/FGFR2 greater or equal to 500) | A (Selectivity of FGFR3/FGFR2 less than 150 but greater than or equal to 100)

Continued, in another order:

Row | IC50 [3] | IC50 [4] | Compound | Selectivity FGFR1/FGFR2 [1] | Selectivity FGFR3/FGFR2 [2]
8 | ≤ 10 nM | > 10 nM | C=CC(=O)Nc1ccc(-c2nn3ncnc(N)c3c2-c2ccc(NC(=O)C3CC3(F)F)c(OC)c2)cc1 (centres unmarked) [Compound 339, N-(4-(6-(4-acrylamidophenyl)-4-aminopyrazolo[5,1-f][1,2,4]triazin-5-yl)-2-methoxyphenyl)-2,2-difluorocyclopropane-1-carboxamide] | C (Selectivity of FGFR1/FGFR2 less than 200 but greater than or equal to 100) | B (Selectivity of FGFR3/FGFR2 less than 100 but greater than or equal to 25)
9 | ≤ 10 nM | 5 to 10 nM | C=CC(=O)Nc1ccc(-c2nn3ncnc(N)c3c2-c2ccc(Oc3nccc(NC)n3)c(F)c2)cc1 [Compound 433, N-(4-(4-amino-5-(3-fluoro-4-((4-(methylamino)pyrimidin-2-yl)oxy)phenyl)pyrazolo[5,1-f][1,2,4]triazin-6-yl)phenyl) acrylamide] | A+ (Selectivity of FGFR1/FGFR2 greater or equal to 500) | A+ (Selectivity of FGFR3/FGFR2 greater or equal to 150)
10 | ≤ 10 nM | 5 to 10 nM | C=C(C)C(=O)Nc1ccc(-c2nn3ncnc(N)c3c2-c2ccc(C(=O)NC3(C(F)(F)F)CC3)c(OC)c2)c(F)c1 [Compound 429] | A+ (Selectivity of FGFR1/FGFR2 greater or equal to 500) | A+ (Selectivity of FGFR3/FGFR2 greater or equal to 150)
11 | ≤ 10 nM | > 10 nM | C=C(C)C(=O)Nc1ccc(-c2c(-c3ccc(Oc4nccc(C)n4)c(F)c3)c3c(N)ncc(C#N)c3n2C)c(C)c1 [Compound 501, N-(4-(4-amino-7-cyano-3-(3-fluoro-4-((4-methylpyrimidin-2-yl)oxy)phenyl)-1-methyl-1H-pyrrolo[3,2-c]pyridin-2-yl)-3-methylphenyl)methacrylamide] | A+ (Selectivity of FGFR1/FGFR2 greater or equal to 500) | A+ (Selectivity of FGFR3/FGFR2 greater or equal to 150)
12 | ≤ 10 nM | < 5 nM | C=C(F)C(=O)Nc1ccc(-c2nn3ncnc(N)c3c2-c2ccc(Oc3cccc(C)n3)c(F)c2)c(C)c1 [Compound 439, N-(4-(4-amino-5-(3-fluoro-4-((6-methylpyridin-2-yl)oxy)phenyl)pyrazolo [5,1-f][1,2,4]triazin-6-yl)-3-methylphenyl)-2-fluoroacrylamide] | C (Selectivity of FGFR1/FGFR2 less than 200 but greater than or equal to 100) | B (Selectivity of FGFR3/FGFR2 less than 100 but greater than or equal to 25)
13 | ≤ 10 nM | < 5 nM | C=CC(=O)Nc1ccc(-c2c(-c3ccc(C(=O)NC4CC(F)(F)C4)c(OC)c3)c3c(N)ncc(C#N)c3n2C)cc1 [Compound 188, 4-(2-(4-acrylamidophenyl)-4-amino-7-cyano-1-methyl-1H-pyrrolo[3,2-c]pyridin-3-yl)-N-(3,3-difluorocyclobutyl)-2-methoxybenzamide] | B (Selectivity of FGFR1/FGFR2 less than 300 but greater than or equal to 200) | B (Selectivity of FGFR3/FGFR2 less than 100 but greater than or equal to 25)
14 | ≤ 10 nM | < 5 nM | C=CC(=O)Nc1ccc(-c2c(-c3ccc(C(=O)NCC(F)(F)F)c(OC)c3)c3c(N)ncc(C#N)c3n2CCOC)cc1 [Compound 318, 4-(2-(4-acrylamidophenyl)-4-amino-7-cyano-1-(2-methoxyethyl)-1H-pyrrolo[3,2-c]pyridin-3-yl)-2-methoxy-N-(2,2,2-trifluoroethyl)benzamide] | C (Selectivity of FGFR1/FGFR2 less than 200 but greater than or equal to 100) | A (Selectivity of FGFR3/FGFR2 less than 150 but greater than or equal to 100)
